Holding throughout (type): functional
In experiment [1] the test system is Pyricularia grisea. Nature of the experiment: Fungicidal activity against Magnaporthe grisea spores inoculated on leaves of compound pre-treated 2 or 3 leaf-stage rice plants assessed as rice blast disease control level at 50 ppm measured after 7 days post fungal inoculation.
Experiment [2] concerns Puccinia recondita. The experiment can be described thus: Fungicidal activity against Puccinia recondita spores inoculated on leaves of compound pre-treated 1.5 leaf-stage wheat plants assessed as wheat brown rust disease control level at 25 ppm measured after 8 days post fungal inoculation.
Experiment [3] concerns Podosphaera xanthii. Nature of the experiment: Fungicidal activity against Podosphaera xanthii (powdery mildew) spores inoculated on leaves of compound pre-treated 1.5 leaf-stage cucumber plants assessed as powdery mildew disease control level at 25 ppm measured after 7 days post fungal inoculation.
A further experiment relates to Botrytis cinerea. Nature of the experiment: Fungicidal activity against Botryotinia fuckeliana spores inoculated on leaves of compound pre-treated seed-leaf stage kidney beans assessed as gray mold disease control level at 62.5 ppm measured after 4 days post fungal inoculation.
Experiment [4] has as its system Pyricularia grisea. The experiment can be described thus: Fungicidal activity against Magnaporthe grisea spores inoculated on leaves of compound pre-treated 2 or 3 leaf-stage rice plants assessed as rice blast disease control level at 250 ppm measured after 7 days post fungal inoculation.
Experiment [5] has as its system Puccinia recondita. Nature of the experiment: Fungicidal activity against Puccinia recondita spores inoculated on leaves of compound pre-treated 1.5 leaf-stage wheat plants assessed as wheat brown rust disease control level at 250 ppm measured after 8 days post fungal inoculation.
In experiment [6] the test system is Podosphaera xanthii. Nature of the experiment: Fungicidal activity against Podosphaera xanthii (powdery mildew) spores inoculated on leaves of compound pre-treated 1.5 leaf-stage cucumber plants assessed as powdery mildew disease control level at 250 ppm measured after 7 days post fungal inoculation.

Molecules are shown by their SMILES.

On to `Cc1nc(C)c(C(=O)Nc2ccsc2C(C)CC(C)C)s1` (stereo not drawn), for which the Activity result is given as “>=95%” in the experiment on Pyricularia grisea [1], “>=95%” in the experiment with Puccinia recondita [2], “>=50%” in the experiment with Podosphaera xanthii [3] and “>=95%” with Botrytis cinerea.
In the case of `CCC(C)c1sccc1NC(=O)c1cn(C)nc1C(F)(F)F` (stereo not drawn), the Activity in the experiment on Pyricularia grisea [4] is given as under 95%; with Puccinia recondita [2], “>=95%”; in the experiment on Podosphaera xanthii [3], “>=50%”; with Botrytis cinerea, “>=95%”.
As to `Cc1nc(C(F)(F)F)c(C(=O)Nc2ccsc2C(C)CC(C)C)s1` (stereo not drawn), the Activity entry with Puccinia recondita [2], with Podosphaera xanthii [3] and in the experiment on Botrytis cinerea was “>=95%” in each case.
On to `CCCCCC(C)c1sccc1NC(=O)c1cn(C)nc1C(F)(F)F` (stereo not drawn), for which the Activity is under 95% in the experiment with Pyricularia grisea [4], “>=95%” in the experiment with Puccinia recondita [2], “>=50%” in the experiment with Podosphaera xanthii [3] and “>=50%” with Botrytis cinerea.
In the case of `Cn1cc(C(=O)Nc2ccsc2-c2ccccc2)c(C(F)(F)F)n1`, the Activity in the experiment with Pyricularia grisea [4] is on record as under 95%; in the experiment on Puccinia recondita [5], under 95%; in the experiment with Podosphaera xanthii [3] it was “>=50%”; in the experiment on Botrytis cinerea it was “>=95%”.
Take `CC1CC(C)(C)c2cccc(NC(=O)c3cn(C)nc3C(F)(F)F)c21` (stereo not drawn): the Activity with Pyricularia grisea [4] is listed as under 95%; in the experiment with Puccinia recondita [2], “>=95%”; in the experiment with Podosphaera xanthii [6], under 95%; in the experiment on Botrytis cinerea it was “>=95%”.
Turning to `CCC(C)C(C)c1sccc1NC(=O)c1cn(C)nc1C(F)(F)F` (stereo not drawn), the Activity entry is listed as “>=50%” in the experiment on Pyricularia grisea [1], “>=95%” with Puccinia recondita [2], “>=95%” in the experiment with Podosphaera xanthii [3] and “>=95%” with Botrytis cinerea.
On to `O=C(Nc1ccccc1-c1ccccc1)c1ccccc1Cl`, for which the Activity with Pyricularia grisea [4] is reported as under 95%; in the experiment on Podosphaera xanthii [6] it was under 95%; in the experiment with Botrytis cinerea it was “>=95%”.
`CC(C)CC(C)c1sccc1NC(=O)c1cccnc1Cl` (stereo not drawn): the Activity entry in the experiment with Podosphaera xanthii [3] was “>=95%”; in the experiment on Botrytis cinerea, “>=50%”.
Consider `Cc1ccsc1C(=O)Nc1ccsc1C(C)CC(C)C` (stereo not drawn), for which the Activity entry in the experiment with Pyricularia grisea [1], in the experiment with Puccinia recondita [2], in the experiment on Podosphaera xanthii [3] and in the experiment on Botrytis cinerea was “>=95%” in each case.
`CC(C)CC(C)c1ccccc1NC(=O)c1cn(C)nc1C(F)(F)F` (stereo not drawn): the Activity entry in the experiment on Pyricularia grisea [1], in the experiment on Puccinia recondita [2], with Podosphaera xanthii [3] and in the experiment on Botrytis cinerea was “>=95%” in each case.
Take `CCC(CC)c1sccc1NC(=O)c1cn(C)nc1C(F)(F)F`: the Activity in the experiment on Pyricularia grisea [4] is listed as under 95%; in the experiment with Puccinia recondita [2], “>=50%”; in the experiment with Podosphaera xanthii [6], under 95%; with Botrytis cinerea, “>=95%”.
As to `CC(C)CC(C)c1sccc1NC(=O)c1cn(C)nc1C(F)F` (stereo not drawn), the Activity entry in the experiment with Pyricularia grisea [1], in the experiment with Puccinia recondita [2], with Podosphaera xanthii [3] and in the experiment on Botrytis cinerea was “>=95%” each time.
In the case of `O=C(Nc1ccccc1-c1ccccc1)c1cccnc1Cl`, the results for the Activity with Pyricularia grisea [4], with Podosphaera xanthii [6] and with Botrytis cinerea were under 95%, under 95% and “>=50%”, respectively.
In the case of `Cc1nc(C(F)(F)F)c(C(=O)Nc2ccccc2-c2ccccc2)s1`, the Activity entry in the experiment on Pyricularia grisea [4] was “>=95%”; with Podosphaera xanthii [3], “>=50%”; in the experiment on Botrytis cinerea, “>=95%”.
In the case of `CC(C)c1sccc1NC(=O)c1cn(C)nc1C(F)(F)F`, the Activity is listed as under 95% with Pyricularia grisea [4], “>=95%” with Puccinia recondita [2], “>=95%” in the experiment on Podosphaera xanthii [6] and “>=95%” with Botrytis cinerea.
Consider `CCCCC(C)c1sccc1NC(=O)c1cn(C)nc1C(F)(F)F` (stereo not drawn), for which the Activity result in the experiment with Pyricularia grisea [4] is “>=95%”; in the experiment with Puccinia recondita [2], “>=95%”; in the experiment with Podosphaera xanthii [3] it was “>=50%”; in the experiment on Botrytis cinerea it was “>=95%”.
As to `Cc1nc(C)c(C(=O)Nc2ccccc2-c2ccccc2)s1`, the Activity in the experiment with Pyricularia grisea [4] is under 95%; with Podosphaera xanthii [6], “>=95%”; in the experiment with Botrytis cinerea, “>=50%”.
For the molecule `CC(C)c1ccccc1NC(=O)c1cn(C)nc1C(F)(F)F`, the Activity in the experiment on Pyricularia grisea [4] is under 95%; in the experiment with Puccinia recondita [2] it was “>=95%”; in the experiment with Podosphaera xanthii [6], “>=95%”; in the experiment with Botrytis cinerea, “>=95%”.
As for `CC1=C(C(=O)Nc2ccsc2C(C)CC(C)C)SCCO1` (stereo not drawn), the Activity entry in the experiment on Pyricularia grisea [4], with Puccinia recondita [2], in the experiment with Podosphaera xanthii [6] and in the experiment with Botrytis cinerea was “>=95%” each time.
Turning to `Cc1nn(C)cc1C(=O)Nc1ccsc1C(C)CC(C)C` (stereo not drawn), the Activity result is listed as “>=50%” in the experiment on Pyricularia grisea [1], “>=95%” in the experiment with Puccinia recondita [2], “>=95%” with Podosphaera xanthii [6] and “>=95%” with Botrytis cinerea.
For `CCC(C)CC(C)c1sccc1NC(=O)c1cn(C)nc1C(F)(F)F` (stereo not drawn), the Activity result in the experiment on Pyricularia grisea [1] is reported as “>=95%”; with Puccinia recondita [2] it was “>=95%”; in the experiment on Podosphaera xanthii [3], “>=95%”; with Botrytis cinerea, “>=50%”.
Take `CCCC(C)c1sccc1NC(=O)c1cn(C)nc1C(F)(F)F` (stereo not drawn): the Activity was under 95% with Pyricularia grisea [4], “>=95%” with Puccinia recondita [2], “>=95%” in the experiment on Podosphaera xanthii [3] and “>=95%” in the experiment with Botrytis cinerea.
Consider `CC1=C(C(=O)Nc2ccccc2-c2ccccc2)CCCO1`, for which the Activity is reported as under 95% with Pyricularia grisea [4], “>=50%” in the experiment on Puccinia recondita [2], “>=95%” in the experiment on Podosphaera xanthii [3] and “>=50%” in the experiment with Botrytis cinerea.
`Cc1nn(C)cc1C(=O)Nc1ccccc1-c1ccccc1`: the Activity with Pyricularia grisea [4] is under 95%; in the experiment on Podosphaera xanthii [6], under 95%; in the experiment with Botrytis cinerea, “>=50%”.
Regarding `CC(C)CCc1sccc1NC(=O)c1cn(C)nc1C(F)(F)F`, the figures for the Activity result in the experiment with Puccinia recondita [2], in the experiment with Podosphaera xanthii [3] and with Botrytis cinerea were “>=95%”, “>=50%” and “>=95%”, respectively.
On to `CCC(C)c1ccccc1NC(=O)c1cn(C)nc1C(F)(F)F` (stereo not drawn), for which the Activity is on record as under 95% with Pyricularia grisea [4], “>=95%” in the experiment with Puccinia recondita [2], “>=50%” in the experiment with Podosphaera xanthii [3] and “>=95%” in the experiment with Botrytis cinerea.
For `CC(C)CC(C)c1sccc1NC(=O)c1cn(C)nc1C(F)(F)F` (stereo not drawn) [PENTHIOPYRAD], the Activity result with Pyricularia grisea [1], in the experiment on Puccinia recondita [2], in the experiment with Podosphaera xanthii [3] and in the experiment on Botrytis cinerea was “>=95%” throughout.
Regarding `CC1=C(C(=O)Nc2ccsc2C(C)CC(C)C)CCCO1` (stereo not drawn), the Activity entry in the experiment with Pyricularia grisea [1] was “>=95%”; with Puccinia recondita [2] it was “>=95%”; in the experiment on Podosphaera xanthii [3], “>=50%”; with Botrytis cinerea, “>=95%”.
As for `Cc1nc(C(F)F)c(C(=O)Nc2ccsc2C(C)CC(C)C)s1` (stereo not drawn), the Activity result in the experiment on Pyricularia grisea [1], with Puccinia recondita [2], in the experiment on Podosphaera xanthii [3] and in the experiment with Botrytis cinerea was “>=95%” throughout.
In the case of `CC(C)CC(C)c1sccc1NC(=O)c1nccnc1Cl` (stereo not drawn), the Activity result in the experiment on Pyricularia grisea [4] is “>=95%”; in the experiment on Puccinia recondita [2] it was “>=95%”; in the experiment on Podosphaera xanthii [6] it was under 95%; in the experiment on Botrytis cinerea it was “>=95%”.
In the case of `Cc1occc1C(=O)Nc1ccsc1C(C)CC(C)C` (stereo not drawn), the Activity entry in the experiment on Pyricularia grisea [1], with Puccinia recondita [2], with Podosphaera xanthii [3] and in the experiment on Botrytis cinerea was “>=95%” each time.
For `CC(C)CC(C)c1sccc1NC(=O)c1cn(C)nc1Cl` (stereo not drawn), the Activity result in the experiment on Pyricularia grisea [1] is listed as “>=50%”; with Puccinia recondita [2], “>=95%”; in the experiment on Podosphaera xanthii [3], “>=50%”; in the experiment with Botrytis cinerea it was “>=95%”.

Values taken from ChEMBL document CHEMBL3046467, “Structure-activity relationship of carboxin-related carboxamides as fungicide” (2011).
